In patent US20250034216A1, “STEREOSELECTIVE COVALENT LIGANDS FOR ONCOGENIC AND IMMUNOLOGICAL PROTEINS” (The Scripps Research Institute, priority 2021, published 2025):

Assays:
[1] = molecular target: T1, TANC1_C800 (Homo sapiens, UniProt Q9C0D5); experiment: IA-DTB cysteine engagement; type: binding; settings: 22Rv1 cells, 20 μM probe, 1 h, relative to DMSO
T1 construct: endogenous in cells; host or cells: 22Rv1
Procedure, shortened: (§1)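 Read-out is TMT-based cysteine engagement, expressed as each reporter ion intensity divided by the average of the DMSO channels. Before that, probe-treated cell lysates were capped with IA-DTB, digested, enriched on streptavidin and TMT-tagged. PSMs with DMSO summed intensity <10,000 or DMSO CV >0.5 were excluded.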

[2] = molecular target: T2, VWA5B2_C1040 (Homo sapiens, UniProt Q8N398); experiment: IA-DTB cysteine engagement; type: binding; settings: 22Rv1 cells, 20 μM probe, 1 h, relative to DMSO
T2 construct: endogenous in cells; host or cells: 22Rv1
T2 sequence (Q8N398 1-1242): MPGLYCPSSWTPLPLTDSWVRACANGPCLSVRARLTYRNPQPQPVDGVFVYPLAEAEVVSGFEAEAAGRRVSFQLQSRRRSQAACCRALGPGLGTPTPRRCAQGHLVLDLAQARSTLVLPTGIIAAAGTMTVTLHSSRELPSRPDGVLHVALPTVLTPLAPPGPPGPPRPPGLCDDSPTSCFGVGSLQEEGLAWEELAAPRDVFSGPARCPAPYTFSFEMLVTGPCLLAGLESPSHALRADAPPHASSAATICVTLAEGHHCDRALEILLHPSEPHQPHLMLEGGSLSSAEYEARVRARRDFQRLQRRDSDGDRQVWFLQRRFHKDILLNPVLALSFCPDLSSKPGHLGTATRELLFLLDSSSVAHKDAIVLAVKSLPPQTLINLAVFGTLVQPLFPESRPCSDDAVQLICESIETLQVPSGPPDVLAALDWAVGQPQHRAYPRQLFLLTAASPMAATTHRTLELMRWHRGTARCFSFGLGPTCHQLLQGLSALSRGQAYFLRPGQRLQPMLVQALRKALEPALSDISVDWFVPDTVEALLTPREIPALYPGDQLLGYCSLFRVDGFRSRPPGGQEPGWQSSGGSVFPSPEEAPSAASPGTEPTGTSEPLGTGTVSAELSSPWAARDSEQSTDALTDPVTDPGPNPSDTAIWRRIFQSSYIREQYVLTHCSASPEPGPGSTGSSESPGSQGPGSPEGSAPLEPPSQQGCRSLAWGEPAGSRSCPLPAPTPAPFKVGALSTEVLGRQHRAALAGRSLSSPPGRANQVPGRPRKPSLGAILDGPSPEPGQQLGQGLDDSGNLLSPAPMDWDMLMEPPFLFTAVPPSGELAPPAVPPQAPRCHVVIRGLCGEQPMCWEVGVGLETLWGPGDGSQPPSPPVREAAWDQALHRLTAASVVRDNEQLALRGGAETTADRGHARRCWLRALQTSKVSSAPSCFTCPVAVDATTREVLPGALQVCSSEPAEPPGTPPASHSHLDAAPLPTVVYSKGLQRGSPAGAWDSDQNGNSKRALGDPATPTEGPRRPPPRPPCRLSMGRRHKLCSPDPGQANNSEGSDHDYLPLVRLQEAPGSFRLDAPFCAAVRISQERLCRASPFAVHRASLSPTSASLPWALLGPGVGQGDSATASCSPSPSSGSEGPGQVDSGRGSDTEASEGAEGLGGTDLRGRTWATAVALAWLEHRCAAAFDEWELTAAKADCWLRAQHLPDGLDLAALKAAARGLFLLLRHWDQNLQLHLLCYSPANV
Procedure, shortened: as §1

T1 sequence (Q9C0D5 whole entry): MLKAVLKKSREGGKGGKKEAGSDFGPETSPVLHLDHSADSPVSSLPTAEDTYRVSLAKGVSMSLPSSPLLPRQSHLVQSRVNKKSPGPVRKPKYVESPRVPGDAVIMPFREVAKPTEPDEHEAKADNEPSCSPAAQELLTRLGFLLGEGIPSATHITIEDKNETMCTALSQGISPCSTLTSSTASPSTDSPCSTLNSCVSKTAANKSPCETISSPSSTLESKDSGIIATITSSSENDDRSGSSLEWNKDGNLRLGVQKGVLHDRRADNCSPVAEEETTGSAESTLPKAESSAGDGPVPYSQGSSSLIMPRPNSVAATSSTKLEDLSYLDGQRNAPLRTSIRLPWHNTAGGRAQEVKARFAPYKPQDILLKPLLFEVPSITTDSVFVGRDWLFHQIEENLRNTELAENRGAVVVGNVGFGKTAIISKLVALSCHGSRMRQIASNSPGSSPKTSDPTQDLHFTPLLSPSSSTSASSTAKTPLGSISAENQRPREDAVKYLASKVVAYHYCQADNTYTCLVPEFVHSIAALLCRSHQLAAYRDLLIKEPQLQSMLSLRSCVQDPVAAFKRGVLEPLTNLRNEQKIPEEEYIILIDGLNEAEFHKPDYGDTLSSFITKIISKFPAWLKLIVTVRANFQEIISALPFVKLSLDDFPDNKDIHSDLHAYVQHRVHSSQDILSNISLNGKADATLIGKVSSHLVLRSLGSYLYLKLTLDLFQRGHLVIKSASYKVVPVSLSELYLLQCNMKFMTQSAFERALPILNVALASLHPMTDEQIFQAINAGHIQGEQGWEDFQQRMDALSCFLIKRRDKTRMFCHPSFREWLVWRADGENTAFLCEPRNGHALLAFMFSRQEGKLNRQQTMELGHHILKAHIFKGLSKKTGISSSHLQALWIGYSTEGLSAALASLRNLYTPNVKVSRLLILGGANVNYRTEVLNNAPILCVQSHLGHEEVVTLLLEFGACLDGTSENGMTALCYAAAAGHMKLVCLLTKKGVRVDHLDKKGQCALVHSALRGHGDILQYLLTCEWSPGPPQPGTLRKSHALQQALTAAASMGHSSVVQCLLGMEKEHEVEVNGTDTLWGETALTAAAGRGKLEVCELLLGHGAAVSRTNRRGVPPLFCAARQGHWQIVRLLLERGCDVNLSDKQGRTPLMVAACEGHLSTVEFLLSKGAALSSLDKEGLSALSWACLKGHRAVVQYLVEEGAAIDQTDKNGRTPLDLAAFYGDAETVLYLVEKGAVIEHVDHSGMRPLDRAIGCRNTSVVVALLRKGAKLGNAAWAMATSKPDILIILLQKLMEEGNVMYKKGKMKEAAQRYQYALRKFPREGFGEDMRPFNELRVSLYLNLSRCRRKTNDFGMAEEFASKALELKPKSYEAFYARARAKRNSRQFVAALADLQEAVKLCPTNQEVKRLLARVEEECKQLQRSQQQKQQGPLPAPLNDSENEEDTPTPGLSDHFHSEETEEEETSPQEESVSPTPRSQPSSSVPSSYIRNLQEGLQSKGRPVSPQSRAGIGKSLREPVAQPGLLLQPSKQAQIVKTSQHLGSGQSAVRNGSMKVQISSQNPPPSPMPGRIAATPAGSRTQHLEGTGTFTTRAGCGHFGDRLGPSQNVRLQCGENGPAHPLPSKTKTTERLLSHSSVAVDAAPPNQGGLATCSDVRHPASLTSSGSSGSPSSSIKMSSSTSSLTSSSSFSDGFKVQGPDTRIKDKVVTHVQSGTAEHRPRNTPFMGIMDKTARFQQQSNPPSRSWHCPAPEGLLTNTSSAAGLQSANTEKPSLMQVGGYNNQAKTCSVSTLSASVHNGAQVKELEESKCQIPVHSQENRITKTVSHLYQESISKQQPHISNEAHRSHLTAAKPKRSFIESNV

% engagement TANC1_C800 [1]	% engagement VWA5B2_C1040 [2]	Structure (SMILES)
83.5%	74.25%	C=CC(=O)N1C[C@H](c2ccc(Br)cc2)[C@H]1C(=O)Nc1cccc2cccnc12 [MY-3B, (2S,3S)-1-acryloyl-3-(4-bromophenyl)-N-(quinolin-8-yl)azetidine-2-carboxamide]
3%	76.25%	C=CC(=O)N1C[C@H](c2ccc(Br)cc2)[C@@H]1C(=O)Nc1cccc2cccnc12 [MY-1B, (2R,3S)-1-acryloyl-3-(4-bromophenyl)-N-(quinolin-8-yl)azetidine-2-carboxamide]
12.5%	51.5%	C=CC(=O)N1C[C@H](c2ccc(Br)cc2)[C@H]1C(=O)Nc1cccc2cccnc12 [MY-3A, (2S,3S)-1-acryloyl-3-(4-bromophenyl)-N-(quinolin-8-yl)azetidine-2-carboxamide]
−2%	76.5%	C=CC(=O)N1C[C@@H](c2ccc(Br)cc2)[C@H]1C(=O)Nc1cccc2cccnc12 [MY-1A, (2S,3R)-1-acryloyl-3-(4-bromophenyl)-N-(quinolin-8-yl)azetidine-2-carboxamide]
